From US12103952B2, “Methods for expressing proteins in axons” (Cornell University, priority 2010, dated 2024)

Test system: CREB
Assay: CREB levels in severed axons by immunofluorescence
Type: cell-based, rat
Settings: for NGF-dependent restoration of CREB immunofluorescence: 1 μM cycloheximide or 40 μM anisomycin, concurrent with NGF replacement
Protocol: FIGS. 7A-B are results showing the axonal translation and retrograde transport of endogenous CREB. (A) CREB levels in severed axons of E15 DRGs were assayed by immunofluorescence with a CREB-specific antibody. CREB was depleted on removal of NGF, with near complete loss of fluorescence signals by 3 hours. […] The error bars represent s.e.m. (n=40). (B) CREB is depleted from axon terminals in a microtubule-dependent manner. CREB levels in severed axons were monitored, as in A, after removal and restoration of NGF, in the presence of LLnL or colchicine. Colchicine, but not LLnL, blocked the reduction in CREB levels following removal of NGF. The error bars represent s.e.m. (n=40).
E15 rat or E13 mouse embryonic dorsal root ganglion (DRG) explants were plated on glass-bottom culture dishes (MatTek) or glass coverslips pre-coated with 33 μg/ml poly-D-lysine and 1 μg/ml laminin. CREB^α/Δ−/+ animals used to generate CREB^α/Δ−/− embryos were from Jackson Labs. E15 dissociated DRG neurons were prepared as described by Wu et al., Nature 436, 1020-1024 (2005). DRGs were cultured in B27/Neurobasal medium (Invitrogen) supplemented with 100 ng/ml nerve growth factor (NGF) and […] 5′-fluorodeoxyuridine (5-FdU) for 3 days. siRNA-mediated knockdown in DRG neurons has been described previously by Higuchi et al., Biochemical & Biophysical Research Communications 301, 804-809 (2003) and was performed using siRNAs listed in Table S3. For measurements of CREB levels in isolated axons, axons were severed from cell bodies by removing the explant with a flame-sharpened Pasteur pipette (Wu et al., Nature 436, 1020-1024 (2005)). Modified Boyden chambers were based on the procedure of Twiss (Zheng et al., Journal of Neuroscience 21, 9291-9303 (2001)) and modified to obtain distal axons as described by Wu et al., Nature 436, 1020-1024 (2005). mRNA from harvested axons (Wu et al., Nature 436, 1020-1024 (2005)) was used to prepare a cDNA library using a modified, unbiased single cell protocol as described below. See also Tietjen et al., Neuron 38, 161-175 (2003). Compartmented (Campenot) cultures were prepared as described below. See also Campenot, Proc Natl Acad Sci USA 74, 4516-4519 (1977)).
Images and measurements of signals in axons were taken from the terminal 50 μm of the axon, except where indicated. Analyzed axons were a minimum of 2000 μm for all experiments. DRGs were fixed with 4% PFA in CBS overnight at 4° C., permeabilized with 0.5% Triton X-100/TBS, and blocked in 4% BSA/TBS for 1 hour. DRGs were labeled with antibodies (Table S4) in 2% BSA/0.1% Triton X-100/TBS overnight at 4° C. For image acquisition details, see below.
The axonal localization of CREB was also examined by immunofluorescence. Axons were severed from cultured DRG explants to rule out potential contributions from anterograde transport of cell body-derived CREB. […] Although the majority of CREB protein localized to the nucleus, with substantially lower levels in axons (FIG. 4D), the immunofluorescence signal in axons was specific. Similar immunofluorescence staining was seen using a different CREB-specific antibody that recognized a non-overlapping epitope.
The importin proteins, which bind nuclear-localization sequences (NLS) (Goldfarb et al., Trends in Cell Biology 14, 505-514 (2004)), are present in axons and mediate the retrograde trafficking of axonally-injected fluorescently-labeled NLS peptides (Hanz et al., Neuron 40, 1095-1104 (2003)). Since CREB contains a NLS that mediates its nuclear localization (Waeber & Habener, Mol Endocrinol 5, 1418-1430 (1991)), axonal CREB may be retrogradely transported to the cell body. To determine if endogenously-expressed CREB is retrogradely trafficked, we examined the time course of CREB reduction in axons upon replacement of media with NGF-free media. […]

| Compound | NGF-dependent restoration of CREB immunofluorescence | CREB immunoreactivity in severed axons (100 ng/ml NGF + 1 μM cycloheximide, 3 hours) | time for axonal CREB levels to decrease to baseline (after NGF removal) | time for CREB levels to return to original levels (following restoration of NGF) | recovery in CREB levels (within 30 min of NGF restoration) |
| --- | --- | --- | --- | --- | --- |
| COc1ccc(C[C@H]2NC[C@H](O)[C@H]2OC(C)=O)cc1 [anisomycin] | prevented the restoration of CREB immunofluorescence |  |  |  |  |
| C[C@@H]1C[C@@H]([C@H](O)CC2CC(=O)NC(=O)C2)C(=O)[C@@H](C)C1 [cycloheximide] | prevented the restoration of CREB immunofluorescence | loss of CREB immunoreactivity |  |  |  |
| NGF: nerve growth factor |  |  | ≤ 3 h | 2 h | ~40% |
